In patent US20120309742A1, “USE OF METABOTROPIC GLUTAMATE RECEPTORS” (priority 2006, published 2012):
Counter-ions that a name gives are not always drawn.

Molecular target: T1, mGluR5 (Homo sapiens, UniProt P41594)
T1 construct: expressed in transfected cells
Assay: inhibition of the glutamate induced elevation of intracellular Ca2+-concentration
Type: cell-based
Conditions: for mGluR5 Activity inh. at 10 μM [%]: inhibition of glutamate induced elevation of intracellular Ca2+-concentration at a concentration of 10 μM; for inhibition at 10 µM: read-out: mGluR5 Activity inh. at 10 μM [%]
Text: This can be determined in vitro for example at recombinant human metabotropic glutamate receptors, especially PLC-coupled subtypes thereof such as mGluR5, using different procedures like, for example, measurement of the inhibition of the agonist induced elevation of intracellular Ca^2+ concentration in accordance with L. P. Daggett et al., Neuropharm.

T1 sequence (P41594 21-1180 isoform P41594-2 limits assumed): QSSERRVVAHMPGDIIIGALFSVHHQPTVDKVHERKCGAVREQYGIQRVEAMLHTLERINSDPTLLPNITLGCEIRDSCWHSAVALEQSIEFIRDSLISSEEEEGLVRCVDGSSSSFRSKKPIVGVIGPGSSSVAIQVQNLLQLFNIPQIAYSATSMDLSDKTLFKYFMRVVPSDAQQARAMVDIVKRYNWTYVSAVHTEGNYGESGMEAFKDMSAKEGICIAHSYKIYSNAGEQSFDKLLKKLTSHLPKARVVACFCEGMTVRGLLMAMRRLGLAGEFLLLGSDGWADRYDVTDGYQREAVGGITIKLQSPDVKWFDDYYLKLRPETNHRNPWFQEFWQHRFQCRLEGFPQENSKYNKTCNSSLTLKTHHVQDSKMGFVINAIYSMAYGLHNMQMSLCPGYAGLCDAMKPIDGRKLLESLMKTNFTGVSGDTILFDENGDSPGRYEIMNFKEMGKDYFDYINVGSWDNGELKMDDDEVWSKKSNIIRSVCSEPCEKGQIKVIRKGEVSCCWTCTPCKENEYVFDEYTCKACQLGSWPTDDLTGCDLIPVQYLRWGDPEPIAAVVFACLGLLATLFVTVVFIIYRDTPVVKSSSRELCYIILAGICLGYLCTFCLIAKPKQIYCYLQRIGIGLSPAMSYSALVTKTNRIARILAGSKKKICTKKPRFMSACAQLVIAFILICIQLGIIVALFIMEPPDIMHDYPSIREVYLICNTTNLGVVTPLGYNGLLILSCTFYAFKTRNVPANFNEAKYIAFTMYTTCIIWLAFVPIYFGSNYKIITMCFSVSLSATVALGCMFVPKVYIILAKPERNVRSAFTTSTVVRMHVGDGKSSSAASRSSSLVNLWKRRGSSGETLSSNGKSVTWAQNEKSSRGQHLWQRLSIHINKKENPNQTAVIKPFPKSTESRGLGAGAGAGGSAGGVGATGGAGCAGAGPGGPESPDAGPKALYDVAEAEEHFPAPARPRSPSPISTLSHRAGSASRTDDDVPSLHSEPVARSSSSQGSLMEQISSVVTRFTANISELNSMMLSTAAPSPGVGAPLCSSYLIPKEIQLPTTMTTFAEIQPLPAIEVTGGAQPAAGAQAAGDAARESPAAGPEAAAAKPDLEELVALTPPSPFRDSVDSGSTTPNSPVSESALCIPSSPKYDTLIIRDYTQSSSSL

Row | mGluR5 Activity inh. at 10 μM [%] | inhibition at 10 µM [%] | SMILES
1 | 51 |  | O=C(c1ccc(Nc2ccc(Cl)cc2)nc1)N1C2CCC1CC(O)C2 (centres unmarked) [Compound 4.11, [6-(4-Chloro-phenylamino)-pyridin-3-yl]-(3-hydroxy-8-aza-bicyclo[3.2.1]oct-8-yl)-methasone]
2 | 98 |  | Cc1ccc(Nc2ncc(C(=O)N3CCCC4CCCC43)cc2Cl)cn1 (centres unmarked) [Compound 4.25, [5-Chloro-6-(6-methyl-pyridin-3-ylamino)-pyridin-3-yl]-(octahydro-[1]pyrindin-1-yl)-methasone]
3 |  | 93 | Cc1ccc(Nc2ncc(C(=O)N3CCC[C@@H]4CCC[C@@H]43)cc2Cl)cn1 [Compound 4.26, [5-Chloro-6-(6-methyl-pyridin-3-ylamino)-pyridin-3-yl]-(4aS,7aS)-octahydro-[1]pyrindin-1-yl-methanone]
4 | 85 |  | CCC[C@H]1CCCCN1C(=O)c1cnc(Nc2ccc(C)nc2)c(Cl)c1 [Compound 4.35, [5-Chloro-6-(6-methyl-pyridin-3-ylamino)-pyridin-3-yl]-((S)-2-propyl-piperidin-1-yl)-methasone]
5 | 97 |  | C/C=C\C1CCCCN1C(=O)c1cnc(Nc2ccc(C)nc2)c(Cl)c1 (centres unmarked) [Compound 4.56, [5-Chloro-6-(6-methyl-pyridin-3-ylamino)-pyridin-3-yl]-[((Z)-2-propenyl)-piperidin-1-yl]-methanone]
6 | 97 |  | CCOCC1CCCCN1C(=O)c1cnc(Nc2ccc(C)nc2)c(Cl)c1 (centres unmarked) [Compound 4.60, [5-Chloro-6-(6-methyl-pyridin-3-ylamino)-pyridin-3-yl]-(2-thoxymethyl-piperidin-1-yl)-methanone]
7 | 95 |  | CCC(CC)C1OCCCCN1C(=O)c1cnc(Nc2ccc(C)nc2)c(Cl)c1 (centres unmarked) [Compound 4.67]

The remaining lines, values behind:

Row | SMILES | mGluR5 Activity inh. at 10 μM [%] | inhibition at 10 µM [%]
8 | C[C@H]1CCCN(C(=O)c2ccc(Nc3ccc(Cl)cc3)nc2)C1 [Compound 1.12a, [6-(4-Chloro-phenylamino)-pyridin-3-yl]-(S-3-methyl-piperidin-1-yl)-methanone] | 99 | 
9 | Cc1ccc(Nc2ccc(C(=O)N3CCCC(C)C3)cn2)cc1 (centres unmarked) [Compound 1.13] | 96 | 
10 | COc1ccc(Nc2ccc(C(=O)N3C[C@@H](C)O[C@@H](C)C3)cn2)cc1 [Compound 1.21, (cis-2,6-Dimethyl-morpholin-4-yl)-[6-(4-methoxy-phenylamino)-pyridin-3-yl]-methanone hydrochloride] |  | 57
11 | Cc1ccc(Nc2ccc(C(=O)N3CCC[C@H](C)C3)cn2)cn1 [Compound 4.13a, (S-3-Methyl-piperidin-1-yl)-[6-(6-methyl-pyridin-3-ylamino)-pyridin-3-yl]-methanone] | 97 | 
